This is an account of results in ChEMBL document CHEMBL2007661, “Compounds: GSK PKIS; Assays: UNC Frye lab” (2012).

Values joined by “and” are separate entries in the source; they are usually repeats but may differ in a detail not shown here. Identical values can stand only once.

Assay [1] addresses T1, Tyrosine-protein kinase Mer (Homo sapiens) (UniProt Q12866).
T1 sequence (whole entry): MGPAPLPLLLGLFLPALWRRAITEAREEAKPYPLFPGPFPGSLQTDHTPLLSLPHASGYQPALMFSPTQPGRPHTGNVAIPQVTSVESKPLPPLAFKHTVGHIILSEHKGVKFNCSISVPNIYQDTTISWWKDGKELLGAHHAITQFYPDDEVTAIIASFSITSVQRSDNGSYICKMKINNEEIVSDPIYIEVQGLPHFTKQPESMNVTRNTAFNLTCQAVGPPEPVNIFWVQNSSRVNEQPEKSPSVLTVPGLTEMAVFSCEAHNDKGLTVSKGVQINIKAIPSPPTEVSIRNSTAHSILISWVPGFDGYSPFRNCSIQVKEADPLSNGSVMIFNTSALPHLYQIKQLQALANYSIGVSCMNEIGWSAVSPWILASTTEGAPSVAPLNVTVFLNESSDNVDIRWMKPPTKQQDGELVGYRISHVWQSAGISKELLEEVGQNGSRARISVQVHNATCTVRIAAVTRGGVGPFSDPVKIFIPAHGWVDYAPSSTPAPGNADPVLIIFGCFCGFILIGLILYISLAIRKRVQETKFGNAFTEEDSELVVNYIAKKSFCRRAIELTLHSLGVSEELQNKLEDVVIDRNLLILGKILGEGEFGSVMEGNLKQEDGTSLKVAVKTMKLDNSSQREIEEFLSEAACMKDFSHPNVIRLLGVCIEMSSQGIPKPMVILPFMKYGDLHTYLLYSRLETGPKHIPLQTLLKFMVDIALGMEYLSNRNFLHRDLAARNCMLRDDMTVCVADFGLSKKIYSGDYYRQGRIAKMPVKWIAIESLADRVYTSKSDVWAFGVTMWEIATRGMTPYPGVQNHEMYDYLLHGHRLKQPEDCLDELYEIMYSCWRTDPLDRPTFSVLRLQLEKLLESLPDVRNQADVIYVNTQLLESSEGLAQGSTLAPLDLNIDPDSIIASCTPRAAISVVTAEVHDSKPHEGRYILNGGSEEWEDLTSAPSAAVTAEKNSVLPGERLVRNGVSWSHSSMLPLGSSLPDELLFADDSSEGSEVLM
The following applies: at 10 µM.

Assay [2] concerns the target T2, Inhibitor of nuclear factor kappa-B kinase subunit epsilon (Homo sapiens) (UniProt Q14164).
T2 sequence (whole entry): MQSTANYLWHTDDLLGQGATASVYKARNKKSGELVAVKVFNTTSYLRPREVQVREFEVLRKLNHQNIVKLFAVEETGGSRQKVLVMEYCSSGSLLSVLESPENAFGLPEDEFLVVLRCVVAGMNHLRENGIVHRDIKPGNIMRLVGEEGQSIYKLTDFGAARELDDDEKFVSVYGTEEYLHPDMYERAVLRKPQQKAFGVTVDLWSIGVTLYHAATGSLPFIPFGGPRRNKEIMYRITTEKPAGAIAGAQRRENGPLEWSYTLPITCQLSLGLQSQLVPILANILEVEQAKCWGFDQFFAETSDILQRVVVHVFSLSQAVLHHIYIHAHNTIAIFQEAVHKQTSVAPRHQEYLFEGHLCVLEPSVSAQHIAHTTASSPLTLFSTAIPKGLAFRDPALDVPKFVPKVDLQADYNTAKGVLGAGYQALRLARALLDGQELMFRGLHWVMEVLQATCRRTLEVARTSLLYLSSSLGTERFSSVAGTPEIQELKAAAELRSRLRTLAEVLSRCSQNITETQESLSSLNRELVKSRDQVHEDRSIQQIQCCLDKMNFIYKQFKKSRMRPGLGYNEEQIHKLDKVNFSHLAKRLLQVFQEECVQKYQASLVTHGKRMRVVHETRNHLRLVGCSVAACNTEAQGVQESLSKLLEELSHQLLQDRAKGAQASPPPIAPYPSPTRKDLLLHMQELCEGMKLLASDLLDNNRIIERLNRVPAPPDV
Particulars: at 1 µM.

Assay [3] concerns the target T3, Inhibitor of nuclear factor kappa-B kinase subunit beta (Homo sapiens) (UniProt O14920).
T3 sequence (whole entry): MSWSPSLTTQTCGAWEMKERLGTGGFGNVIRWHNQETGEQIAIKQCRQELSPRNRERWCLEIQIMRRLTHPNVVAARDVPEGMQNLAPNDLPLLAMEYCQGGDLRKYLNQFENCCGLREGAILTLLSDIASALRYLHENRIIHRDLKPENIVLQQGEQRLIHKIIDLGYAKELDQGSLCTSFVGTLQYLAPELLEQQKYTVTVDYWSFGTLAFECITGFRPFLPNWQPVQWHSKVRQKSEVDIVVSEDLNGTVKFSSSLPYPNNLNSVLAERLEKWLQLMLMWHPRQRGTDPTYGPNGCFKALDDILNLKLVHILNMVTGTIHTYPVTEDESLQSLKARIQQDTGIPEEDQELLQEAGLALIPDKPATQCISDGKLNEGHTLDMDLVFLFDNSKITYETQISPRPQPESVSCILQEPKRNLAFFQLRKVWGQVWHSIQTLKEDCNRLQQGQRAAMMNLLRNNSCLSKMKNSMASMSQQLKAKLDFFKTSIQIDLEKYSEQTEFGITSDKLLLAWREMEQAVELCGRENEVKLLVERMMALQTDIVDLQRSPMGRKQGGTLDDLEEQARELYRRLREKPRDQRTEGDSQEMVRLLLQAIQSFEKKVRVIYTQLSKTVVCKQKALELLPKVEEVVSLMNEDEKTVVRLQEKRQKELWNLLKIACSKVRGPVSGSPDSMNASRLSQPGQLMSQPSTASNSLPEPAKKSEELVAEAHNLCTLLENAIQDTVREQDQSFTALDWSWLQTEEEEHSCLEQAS
Particulars: at 1 µM.

Turning to `CCCN1CCC(Oc2cc(Nc3nc(Nc4cccc(F)c4C(N)=O)c4cc[nH]c4n3)c(OC)cc2Cl)CC1`, the inhibition in assay [1] is -6%; in assay [2], 0% and -2%; in assay [3], -5% and -1%.
With `COc1cccc(/C=N/Nc2ncnc3c2cnn3-c2cccc(OC)c2)c1`, the inhibition is -6% in assay [1]; -1% and 1% in assay [2]; -1% and -4% in assay [3].
With `COc1ccc2ncn(-c3cc(O[C@H](C)c4ccccc4Cl)c(C(N)=O)s3)c2c1`, the inhibition in assay [1] was 86%; in assay [2], -2%; in assay [3] it was 6% and 3%.
As for `COC(=O)c1sc(-n2cnc3cc(OC)c(OC)cc32)cc1OCc1ccccc1C(F)(F)F`, the inhibition is -1% in assay [1]; 13% and 11% in assay [2]; -6% and -3% in assay [3].
With `COc1cc(N2CCN(C(C)C)CC2)ccc1Nc1nc(Nc2ccc(F)cc2C(N)=O)c2cc[nH]c2n1`, the inhibition was 4% in assay [1]; 6% and 4% in assay [2]; 0% and -4% in assay [3].
Regarding `c1ccc(-c2n[nH]cc2-c2ccnc(-c3ccc(OCCn4ccnc4)cc3)c2)nc1`, the inhibition in assay [1] is 0%; in assay [2] it was -2% and 0%; in assay [3], -2% and -1%.
On to `Fc1cccc(COc2ccc(Nc3ncnc4sc(-c5ccco5)cc34)cc2Cl)c1`, for which the inhibition is 78% in assay [1]; 0% and 2% in assay [2]; 10% and 6% in assay [3].
As for `O=C(O[C@H]1CN[C@H](C#Cc2cc3ncnc(Nc4ccc(OCc5cccc(F)c5)c(Cl)c4)c3s2)C1)N1CCOCC1`, the inhibition in assay [1] is -3%; in assay [2], -1% and -3%; in assay [3] it was 0% and -1%.
In the case of `CCN1CCC(C(=O)Nc2n[nH]c3nnc(-c4cccc(F)c4F)cc23)CC1`, the inhibition in assay [1] was -7%; in assay [2] it was -1% and -3%; in assay [3], -2% and -4%.
Consider `COc1ccc2ncn(-c3cc(O[C@H](C)c4ccccc4C(F)(F)F)c(C(N)=O)s3)c2c1`, for which the inhibition in assay [1] is 3%; in assay [2], -3% and -4%; in assay [3], 0% and -2%.
On to `NS(=O)(=O)c1cccc(-c2ccc3c(NC(=O)C4CC4)n[nH]c3c2)c1`, for which the inhibition is -7% in assay [1]; -1% and 0% in assay [2]; -3% and -1% in assay [3].
Consider `CS(=O)(=O)CCNCc1ccc(-c2ccc3ncnc(Nc4ccc(OCc5ccccc5)c(Br)c4)c3c2)o1`, for which the inhibition is 14% in assay [1]; -2% and -1% in assay [2]; -1% and -2% in assay [3].
On to `CCn1c(-c2nonc2N)nc2cncc(C(=O)N3CCNCC3)c21`, for which the inhibition in assay [1] was 0%; in assay [2], -2% and 0%; in assay [3], 13% and -2%.
Regarding `Nc1nccc(-c2c(-c3ccc(F)cc3)ncn2CCCN2CCOCC2)n1`, the inhibition in assay [1] was 4%; in assay [2], 1% and 3%; in assay [3], -5% and -8%.
Turning to `COC(=O)c1cncc(/C=C/c2c(C)cc(O)cc2C)c1`, the inhibition in assay [1] is -6%; in assay [2], 0% and 1%; in assay [3], -4% and -5%.
Consider `Nc1ncc(-c2cccc(S(N)(=O)=O)c2)c2scc(-c3ccc(F)c(Cl)c3)c12`, for which the inhibition in assay [1] is 3%; in assay [2], 1% and 2%; in assay [3] it was -1% and 0%.
Take `CC1=C(C(=O)Nc2ccc3[nH]nc(C)c3c2)C(c2ccc(C(F)(F)F)cc2)CC(=O)N1` (stereo unspecified): the inhibition in assay [1] is 44%; in assay [2], -1% and 0%; in assay [3], 6% and 0%.
With `NS(=O)(=O)c1cccc(Nc2cc(-c3ccc(F)cc3)n[nH]2)c1`, the inhibition in assay [1] is 0%; in assay [2] it was 5%; in assay [3], -2%.
On to `Cc1ccc(C(=O)NC2CCC2)cc1-c1ccc(C(=O)NCC2CC2)cc1`, for which the inhibition is 2% in assay [1]; -1% and -2% in assay [2]; -7% and -4% in assay [3].
As for `Clc1ccc(CNc2nccc(-c3cnn4ncccc34)n2)cc1`, the inhibition in assay [1] was -4%; in assay [2], 0%; in assay [3], 5% and -2%.
For `c1ccc(COc2ccc(Nc3ncnc4ccc(-c5ccco5)cc34)cc2)cc1`, the inhibition in assay [1] is 99%; in assay [2], -3% and -1%; in assay [3], -1% and 4%.
As to `Nc1nonc1-c1nc2cnccc2n1C1CCCCC1`, the inhibition is 1% in assay [1], 25% in assay [2] and -7% in assay [3].
`COc1ccc(-c2nn3ncccc3c2-c2ccnc(Nc3cccc(C(F)(F)F)c3)n2)cc1`: the inhibition in assay [1] was 6%; in assay [2], -1% and 0%; in assay [3], -1% and -3%.
Turning to `COc1ccc(-c2ccncc2)cc1C(N)=O`, the inhibition in assay [1] was 3%; in assay [2], 1% and 3%; in assay [3], 3% and 4%.
`CS(=O)(=O)CCNCc1ccc(-c2ccc3ncnc(Nc4ccc(OCc5cccc(C(F)(F)F)c5)cc4)c3c2)o1`: the inhibition in assay [1] is -2%; in assay [2] it was 1% and -1%; in assay [3], 0% and -1%.
With `CCn1c(-c2nonc2N)nc2c(C#CCN)ncc(OCCCN)c21`, the inhibition was -4% in assay [1]; 8% and 6% in assay [2]; -3% and -6% in assay [3].
Consider `COc1cc(Nc2nccc(Nc3ccc4c(C)n[nH]c4c3)n2)cc(OC)c1OC`, for which the inhibition in assay [1] is -5%; in assay [2], 22% and 23%; in assay [3], -2%.
As to `COc1ccc(-c2ccc3c(NC(=O)C4CC4)n[nH]c3n2)cc1`, the inhibition in assay [1] is -5%; in assay [2], -1% and 0%; in assay [3], -5%.
With `NS(=O)(=O)c1ccc(-c2cc3ccncc3cc2OCc2ccccc2)cc1`, the inhibition in assay [1] is -3%; in assay [2] it was 0% and 1%; in assay [3] it was -4% and -6%.
Regarding `NC(=O)c1cccc(Nc2nccc(Nc3cccc(F)c3)n2)c1`, the inhibition is 50% in assay [1]; 13% and 12% in assay [2]; -4% and -3% in assay [3].
Take `CS(=O)(=O)CCNCc1ccc(-c2ccc3ncnc(Nc4ccc(OCc5cccc(F)c5)c(C(F)(F)F)c4)c3c2)o1`: the inhibition is 50% in assay [1]; 1% and 4% in assay [2]; 2% and -2% in assay [3].
With `CCc1cccc(CC)c1/C=C/c1cncc(C(=O)NC)c1`, the inhibition in assay [1] is -7%; in assay [2] it was -2% and -3%; in assay [3], -6% and -4%.

One may read the inhibition as the change of the read-out against control, counted positive when it falls.
